This is an account of results in patent US9296753B2, “Crystalline forms of a Bruton's tyrosine kinase inhibitor” (Pharmacyclics LLC, priority 2012, dated 2016).

The nature of data set [1]: Thermodynamic aqueous solubility. As to conditions: water, 25 °C, thermodynamic from solid. The format is physicochemical. As for the experimental part: The suspension was equilibrated at 25° C. for 24 hours then the pH was measured. The suspension was then filtered through a glass fibre C filter. The filtrate was then diluted by an appropriate factor e.g. 101. Quantitation was by HPLC with reference to a standard solution of approximately 0.25 mg/ml in DMSO. Different volumes of the standard, diluted and undiluted sample solutions were injected. The solubility was calculated using the peak areas determined by integration of the peak found at the same retention time as the principal peak in the standard injection.
Analysis was performed on an Agilent HP1100 series system equipped with a diode array detector and using ChemStation software vB.02.01-SR1.

For data set [2] the following is noted: for mass change (GVS): between 0-90% RH. As for the experimental part:
Sorption isotherms were obtained using a SMS DVS Intrinsic moisture sorption analyser, controlled by DVS Intrinsic Control software v1.0.0.30. The sample temperature was maintained at 25° C. by the instrument controls. The humidity was controlled by mixing streams of dry and wet nitrogen, with a total flow rate of 200 ml/min. […] The weight change, (mass relaxation) of the sample as a function of % RH was constantly monitored by the microbalance (accuracy±0.005 mg). Typically 5-20 mg of sample was placed in a tared mesh stainless steel basket under ambient conditions. The sample was loaded and unloaded at 40% RH and 25° C. (typical room conditions). A moisture sorption isotherm was performed as outlined below (2 scans giving 1 complete cycle). The standard isotherm was performed at 25° C. at 10% RH intervals over a 0-90% RH range. Data analysis was undertaken in Microsoft Excel using DVS Analysis Suite v6.0.0.7. The sample was recovered after completion of the isotherm and re-analysed by XRPD.

In brackets after ≈: the same amount, converted by molar mass. Where two headings read alike, the source gives them in different places. Some results are limits rather than exact numbers.

As for `C=CC(=O)N1CCC[C@@H](n2nc(-c3ccc(Oc4ccccc4)cc3)c3c(N)ncnc32)C1` [Form A, 1-((R)-3-(4-amino-3-(4-phenoxyphenyl)-1H-pyrazolo[3,4-d]pyrimidin-1-yl)piperidin-1-yl)prop-2-en-1-one], the solubility – broadly, the dissolved amount per volume that the medium holds – at 24 h is 1.3 mg/mL (≈ 2950 µM) in data set [1] (pH 1.2, simulated gastric fluid, pH 1.2, 25° C., 24 hours, read-out: Conc. Found (solubility in aqueous solution)); 1.07 mg/mL (≈ 2430 µM) in data set [1] (pH 1.64, simulated gastric fluid, pH 1.64, 25° C., 24 hours, read-out: Conc. Found (solubility in aqueous solution)); 0.82 mg/mL (≈ 1860 µM) in data set [1] (pH 1.95, simulated gastric fluid, pH 1.95, 25° C., 24 hours, read-out: Conc. Found (solubility in aqueous solution)); 0.1 mg/mL (≈ 227 µM) in data set [1] (pH 3, aqueous buffer, pH 3, 25° C., 24 hours, read-out: Conc. Found (solubility in aqueous solution)); 0.022 mg/mL (≈ 49.9 µM) in data set [1] (pH 4, aqueous buffer, pH 4, 25° C., 24 hours, read-out: Conc. Found (solubility in aqueous solution)); 0.017 mg/mL (≈ 38.6 µM) in data set [1] (pH 5, aqueous buffer, pH 5, 25° C., 24 hours, read-out: Conc. Found (solubility in aqueous solution)). Besides, the solubility at 24 h in data set [1] (pH 6, aqueous buffer, pH 6, 25° C., 24 hours, read-out: Conc. Found (solubility in aqueous solution)) is 0.015 mg/mL (≈ 34.1 µM); in data set [1] (pH 8, aqueous buffer, pH 8, 25° C., 24 hours, read-out: Conc. Found (solubility in aqueous solution)) it was roughly 0.013 mg/mL (≈ 29.5 µM); in data set [1] (pH 9, aqueous buffer, pH 9, 25° C., 24 hours, read-out: Conc. Found (solubility in aqueous solution)), 0.02 mg/mL (≈ 45.4 µM); in data set [1] (pH 10, aqueous buffer, pH 10, 25° C., 24 hours, read-out: Conc. Found (solubility in aqueous solution)), 0.01 mg/mL (≈ 22.7 µM). In addition, in data set [2], the “changes in the XRPD after GVS analysis” value is “No significant changes”. For the same molecule, the “mass change (GVS)” value in data set [2] (25° C.) is given as less than 0.3 % w/w.
In the case of `C=CC(=O)N1CCC[C@@H](n2nc(-c3ccc(Oc4ccccc4)cc3)c3c(N)ncnc32)C1` [Form B, 1-((R)-3-(4-amino-3-(4-phenoxyphenyl)-1H-pyrazolo[3,4-d]pyrimidin-1-yl)piperidin-1-yl)prop-2-en-1-one], the solubility at 24 h in data set [1] (pH 7.42, water, pH of about 7.42, read-out: observed aqueous solubility) is roughly 0.0096 mg/mL (≈ 21.8 µM). In addition, the solubility (thermodynamic) (as a rule, solubility found after equilibrating the solid with the medium) at 24 h in data set [1] (pH 7.42, water, pH of 7.42) was 0.0096 mg/mL (≈ 21.8 µM). In addition, the “hysteresis (GVS)” value in data set [2] (0-90% RH, 25° C.) is given as “No hysteresis”. Besides, in data set [2], the “changes in the XRPD after GVS analysis” value is listed as “No significant changes”. Moreover, the “mass change (GVS)” value in data set [2] (25° C.) came to 2.3 % w/w.
